Source: patent US9795607B2, “Substituted pyrrolopyrimidine compounds, compositions thereof, and methods of treatment therewith” (Signal Pharmaceutical, LLC, priority 2013, dated 2017)

system: Triple negative breast cancer cell line CAL51; assay: Cell Titer Glo proliferation assay, CAL51; format: cell-based; conditions: Homo sapiens, CAL-51; CAL51 cell proliferation (Table 1); read-out: Act. Level
Experimental: Cell Titer Glo Proliferation Assay.
Triple negative breast cancer cell line CAL51 was purchased from DSMZ. […] Allcell lines were maintained in growth media consisting of 90% high glucose Dulbecco's Modified Eagle Medium or RPMI1640 (Invitrogen), 10% fetal bovine serum (Hyclone), and 2 mM L-glutamine (Invitrogen). […] After overnight culture, compound stock (30 mM) was diluted serially in DMSO, further diluted in growth media, and was added to each well as a 10× concentrated solution in a volume of 11 μL, mixed, and allowed to incubate with cells. The compound vehicle (DMSO) was maintained at a final concentration of 0.2% in all wells. After 72 h, 100 μL of Cell Titer Glo solution (Promega) was added to each well of the 96-well plate. The plate was placed on a shaker for 2 minutes. After 10 minutes incubation, the luminescence signal was detected with Envision microplate reader (Perkin Elmer).

IC50 | Structure (SMILES)
< 100 nM | COc1cc(C(=O)NC2COC2)ccc1Nc1nc(OC)c2c(-c3cc(C)nc(Cl)c3)c[nH]c2n1 [Example 437, 4-(5-(2-chloro-6-methylpyridin-4-yl)-4-methoxy-7H-pyrrolo[2,3-d]pyrimidin-2-ylamino)-3-methoxy-N-(oxetan-3-yl)benzamide]
400 to 1000 nM | COc1cc(C(=O)N(C)C)ccc1Nc1nc(OC)c2c(-c3ccnc(F)c3)c[nH]c2n1 [Example 412, 4-(5-(2-fluoropyridin-4-yl)-4-methoxy-7H-pyrrolo[2,3-d]pyrimidin-2-ylamino)-3-methoxy-N,N-dimethylbenzamide]
100 to 400 nM | COc1cc(C(=O)N(C)C2COC2)ccc1Nc1nc(OC)c2c(-c3ccnc(F)c3)c[nH]c2n1 [Example 413, 4-(5-(2-fluoropyridin-4-yl)-4-methoxy-7H-pyrrolo[2,3-d]pyrimidin-2-ylamino)-3-methoxy-N-methyl-N-(oxetan-3-yl)benzamide]
< 100 nM | COc1cc(C(=O)N(C)C)ccc1Nc1nc(OC)c2c(-c3cc(C)nc(F)c3)c[nH]c2n1 [Example 418, 4-(5-(2-fluoro-6-methylpyridin-4-yl)-4-methoxy-7H-pyrrolo[2,3-d]pyrimidin-2-ylamino)-3-methoxy-N,N-dimethylbenzamide]
100 to 400 nM | COc1cc(C(=O)NC2COC2)ccc1Nc1nc(OC)c2c(-c3ccc4[nH]c(C)nc4c3)c[nH]c2n1 [Example 404, 3-methoxy-4-(4-methoxy-5-(2-methyl-1H-benzo[d]imidazol-5-yl)-7H-pyrrolo[2,3-d]pyrimidin-2-ylamino)-N-(oxetan-3-yl)benzamide]

Continued, molecule first:

Structure (SMILES) | IC50
CCc1cc(C(=O)NC)ccc1Nc1nc(OC2CCOCC2)c2c(-c3ccc4nc(C)oc4c3)c[nH]c2n1 [Example 435, 3-ethyl-N-methyl-4-(5-(2-methylbenzo[d]oxazol-6-yl)-4-(tetrahydro-2H-pyran-4-yloxy)-7H-pyrrolo[2,3-d]pyrimidin-2-ylamino)benzamide] | < 100 nM
COc1nc(Nc2ccc3[nH]ncc3c2C)nc2[nH]cc(-c3ccncc3)c12 [Example 414, 4-methoxy-N-(4-methyl-1H-indazol-5-yl)-5-(pyridin-4-yl)-7H-pyrrolo[2,3-d]pyrimidin-2-amine] | 1000 to 10000 nM
CCCc1cc(C(=O)NC)ccc1Nc1nc(OC2CCOCC2)c2c(-c3ccc4nc(C)oc4c3)c[nH]c2n1 [Example 436, N-methyl-4-(5-(2-methylbenzo[d]oxazol-6-yl)-4-(tetrahydro-2H-pyran-4-yloxy)-7H-pyrrolo[2,3-d]pyrimidin-2-ylamino)-3-propylbenzamide] | < 100 nM
Cc1nc2ccc(-c3c[nH]c4nc(Nc5ccc(C(=O)NC6COC6)cc5Cl)nc(OC5CCOCC5)c34)cc2o1 [Example 438, 3-chloro-4-(5-(2-methylbenzo[d]oxazol-6-yl)-4-(tetrahydro-2H-pyran-4-yloxy)-7H-pyrrolo[2,3-d]pyrimidin-2-ylamino)-N-(oxetan-3-yl)benzamide] | < 100 nM

same assay, conditions: Homo sapiens, CAL-51; CAL51 cell proliferation, Cell Titer Glo; read-out: Act. Level

IC50 | Structure (SMILES)
< 100 nM | CNC(=O)c1ccc(Nc2nc(OCCOC)c3c(-c4cnn(C)c4)c[nH]c3n2)c(OC)c1 [Example 326, 3-methoxy-4-(4-(2-methoxyethoxy)-5-(1-methyl-1H-pyrazol-4-yl)-7H-pyrrolo[2,3-d]pyrimidin-2-ylamino)-N-methylbenzamide]
1000 to 10000 nM | COc1cc(C(=O)NC2COC2)ccc1Nc1nc(OC)c2c(-c3ccncn3)c[nH]c2n1 [Example 395, 3-methoxy-4-(4-methoxy-5-(pyrimidin-4-yl)-7H-pyrrolo[2,3-d]pyrimidin-2-ylamino)-N-(oxetan-3-yl)benzamide]
< 100 nM | COc1cc(C(=O)NC2CN(C)C2)ccc1Nc1nc(OC(C)C)c2c(-c3ccc4nc(C)oc4c3)c[nH]c2n1 [Example 356, 4-(4-isopropoxy-5-(2-methylbenzo[d]oxazol-6-yl)-7H-pyrrolo[2,3-d]pyrimidin-2-ylamino)-3-methoxy-N-(1-methylazetidin-3-yl)benzamide]
< 100 nM | COc1cc(C(=O)NC2COC2)ccc1Nc1nc(OC)c2c(-c3ccnc(C)c3)c[nH]c2n1 [Example 383, 3-methoxy-4-(4-methoxy-5-(2-methylpyridin-4-yl)-7H-pyrrolo[2,3-d]pyrimidin-2-ylamino)-N-(oxetan-3-yl)benzamide]
400 to 1000 nM | COc1cc(C(=O)N2CC2)ccc1Nc1nc(OC)c2c(-c3ccncc3)c[nH]c2n1 [Example 338, aziridin-1-yl(3-methoxy-4-(4-methoxy-5-(pyridin-4-yl)-7H-pyrrolo[2,3-d]pyrimidin-2-ylamino)phenyl)methanone]
< 100 nM | COc1cc(C(=O)NC2COC2)ccc1Nc1nc(OC)c2c(-c3cc(C)nc(C)c3)c[nH]c2n1 [Example 384, 4-(5-(2,6-dimethylpyridin-4-yl)-4-methoxy-7H-pyrrolo[2,3-d]pyrimidin-2-ylamino)-3-methoxy-N-(oxetan-3-yl)benzamide]
100 to 400 nM | COc1cc(C(=O)NC2COC2)ccc1Nc1nc(OC)c2c(-c3cnn(C)c3)c[nH]c2n1 [Example 382, 3-methoxy-4-(4-methoxy-5-(1-methyl-1H-pyrazol-4-yl)-7H-pyrrolo[2,3-d]pyrimidin-2-ylamino)-N-(oxetan-3-yl)benzamide]
100 to 400 nM | CNC(=O)c1ccc(Nc2nc(OC3CCCC3)c3c(-c4cc(F)c5nc(C)oc5c4)c[nH]c3n2)c(OC)c1 [Example 330, 4-(4-(cyclopentyloxy)-5-(4-fluoro-2-methylbenzo[d]oxazol-6-yl)-7H-pyrrolo[2,3-d]pyrimidin-2-ylamino)-3-methoxy-N-methylbenzamide]

Further lines, the molecule ahead of its results:

Structure (SMILES) | IC50
CNC(=O)c1ccc(-c2c[nH]c3nc(Nc4ccc(C(=O)NC5CN(C)C5)cc4OC)nc(O[C@H]4CCOC4)c23)cc1 [Example 375, (S)-3-methoxy-N-(1-methylazetidin-3-yl)-4-(5-(4-(methylcarbamoyl)phenyl)-4-(tetrahydrofuran-3-yloxy)-7H-pyrrolo[2,3-d]pyrimidin-2-ylamino)benzamide] | 400 to 1000 nM
COCCOc1nc(Nc2ccc(C(=O)NC3COC3)cc2OC)nc2[nH]cc(-c3ccc4nc(C)oc4c3)c12 [Example 365, 3-methoxy-4-(4-(2-methoxyethoxy)-5-(2-methylbenzo[d]oxazol-6-yl)-7H-pyrrolo[2,3-d]pyrimidin-2-ylamino)-N-(oxetan-3-yl)benzamide] | < 100 nM
CNC(=O)c1ccc(-c2c[nH]c3nc(Nc4ccc(C(=O)NC5CN(C)C5)cc4OC)nc(OC4CCC4)c23)cc1 [Example 348, 4-(4-cyclobutoxy-5-(4-(methylcarbamoyl)phenyl)-7H-pyrrolo[2,3-d]pyrimidin-2-ylamino)-3-methoxy-N-(1-methylazetidin-3-yl)benzamide] | 100 to 400 nM
CNC(=O)c1ccc(-c2c[nH]c3nc(Nc4ccc(C(=O)N5CC5)cc4OC)nc(O[C@H]4CC[C@@](C)(O)CC4)c23)cc1 [Example 336, 4-(2-(4-(aziridine-1-carbonyl)-2-methoxyphenylamino)-4-((1s,4s)-4-hydroxy-4-methylcyclohexyloxy)-7H-pyrrolo[2,3-d]pyrimidin-5-yl)-N-methylbenzamide] | < 100 nM
COCCn1ncc(Nc2nc(OC3CCCC3)c3c(-c4ccc5nc(C)oc5c4)c[nH]c3n2)c1Cl [Example 378, N-(5-chloro-1-(2-methoxyethyl)-1H-pyrazol-4-yl)-4-(cyclopentyloxy)-5-(2-methylbenzo[d]oxazol-6-yl)-7H-pyrrolo[2,3-d]pyrimidin-2-amine] | < 100 nM
CNC(=O)c1ccc(Nc2nc(OC3CCOCC3)c3c(-c4cncc(OC)c4)c[nH]c3n2)c(OC)c1 [Example 325, 3-methoxy-4-(5-(5-methoxypyridin-3-yl)-4-(tetrahydro-2H-pyran-4-yloxy)-7H-pyrrolo[2,3-d]pyrimidin-2-ylamino)-N-methylbenzamide] | 100 to 400 nM
COc1cc(C(=O)NC2CN(C)C2)ccc1Nc1nc(OC(C)(C)C)c2c(-c3ccc4nc(C)oc4c3)c[nH]c2n1 [Example 354, 4-(4-tert-butoxy-5-(2-methylbenzo[d]oxazol-6-yl)-7H-pyrrolo[2,3-d]pyrimidin-2-ylamino)-3-methoxy-N-(1-methylazetidin-3-yl)benzamide] | < 100 nM
CNC(=O)c1ccc(-c2c[nH]c3nc(Nc4ccc(C(=O)NC5COC5)cc4OC)nc(O[C@H]4CCOC4)c23)cc1 [Example 376, (S)-3-methoxy-4-(5-(4-(methylcarbamoyl)phenyl)-4-(tetrahydrofuran-3-yloxy)-7H-pyrrolo[2,3-d]pyrimidin-2-ylamino)-N-(oxetan-3-yl)benzamide] | < 100 nM
CNC(=O)c1ccc(-c2c[nH]c3nc(Nc4ccc(C(=O)NC5COC5)cc4OC)nc(OCCOC)c23)cc1 [Example 373, 3-methoxy-4-(4-(2-methoxyethoxy)-5-(4-(methylcarbamoyl)phenyl)-7H-pyrrolo[2,3-d]pyrimidin-2-ylamino)-N-(oxetan-3-yl)benzamide] | 100 to 400 nM
COc1cc(C(=O)NC2CN(C)C2)ccc1Nc1nc(OC2CCOCC2)c2c(-c3ccc4nc(C)oc4c3)c[nH]c2n1 [Example 367, 3-methoxy-N-(1-methylazetidin-3-yl)4-(5-(2-methylbenzo[d]oxazol-6-yl)-4-(tetrahydro-2H-pyran-4-yloxy)-7H-pyrrolo[2,3-d]pyrimidin-2-ylamino)benzamide] | 100 to 400 nM

same assay, conditions: Homo sapiens, CAL-51; CAL51 cell proliferation; activity level class of IC50; read-out: Act. Level

IC50 | Structure (SMILES)
< 100 nM | CNC(=O)c1ccc(Nc2nc(OC3CCC(O)CC3)c3c(-c4ccc5nc(C)oc5c4)c[nH]c3n2)c(OC)c1 (stereo not shown) [Example 137, 4-(4-((1r,4r)-4-hydroxycyclohexyloxy)-5-(2-methylbenzo[d]oxazol-6-yl)-7H-pyrrolo[2,3-d]pyrimidin-2-ylamino)-3-methoxy-N-methylbenzamide]
